Test results taken from patent US10023592B2, “Bromodomain inhibitors” (Celgene Quanticel Research, Inc., priority 2013, dated 2018).

Columns and labels:
[1] = test system: Raji, human Burkitts lymphoma cells; assay: Cell-MTS proliferation assay, Raji; assay type: cell-based; settings: Homo sapiens, Raji, 168 hr
Experimental: (§1) The Cell-MTS assay is a 7-day plate-based colorimetric assay which quantifies the amount of newly generated NADH in the presence or absence of test compound. The NADH level is used for the quantification of cancer cell proliferation.
(§2) Established cancer cell lines with a variety of driving mutations were obtained from American Type Culture Collection (ATCC) and routinely passaged according to ATCC protocols. For routine assay, these cells were seeded at densities which enabled ˜90% confluence after 7 days of culture. Raji, human Burkitts lymphoma cells, (cMYC) were seeded at 15,000 cells per 96-well. HL-60, human proleukemia cells, (NRAS, p16, p53, c-Myc amplified) were seeded at 5,000 cells per 96-well. NCI-H460, human non-small cell lung cancer cells, (KRAS, PIK3CA, STLK11, p16) were seeded at 3,000 cells per 96-well. 24 hr after plating, cells received an 11-point dilution of test compound with final concentration ranges from 100 μM to 2.0 nM. […] At the end of this incubation period, 80 μL of media is removed and 20 μL of CellTiter 96® AQueous Non-Radioactive Cell Proliferation Assay soln (Promega) was added. The cells were incubated until the OD490 was >0.6. IC50 values were calculated using the IDBS XLfit software package and include background subtracted OD490 values and normalization to DMSO controls. Cellular proliferation IC50 values were uploaded and archived using the Chem Biography Platform.

[2] = test system: HL-60, human proleukemia cells; assay: Cell-MTS proliferation assay, HL-60; assay type: cell-based; settings: Homo sapiens, 168 hr
Experimental: as §1, §2

[3] = test system: NCI-H460, human non-small cell lung cancer cells; assay: Cell-MTS proliferation assay, NCI-H460; assay type: cell-based; settings: Homo sapiens, 168 hr
Experimental: as §1, §2

[4] = molecular target: BRD4(BD1) (Homo sapiens (Human), UniProt O60885); assay: In vitro enzyme inhibition assay (BRD4 AlphaScreen); assay type: binding; settings: in vitro enzyme inhibition assay
How it was run: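 AlphaScreen proximity readout, using streptavidin donor and Ni-chelate acceptor beads at 5 μg/mL final, monitors biotin-H4 tetraacetylated peptide interaction with purified His-tagged BRD4.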

[5] = NCI-H460, Cell-MTS proliferation
[6] = Cell-MTS proliferation, HL-60 cells
[7] = Cell-MTS proliferation, NCI-H460 cells

Compound	IC50 [4] [nM]	IC50 ([1]; Cell-MTS proliferation) [nM]	IC50 [3, 5] [nM]	IC50 ([2]; HL-60, Cell-MTS proliferation) [nM]	other results
Cc1c(-c2cc(NS(C)(=O)=O)ccc2Oc2ccc(F)cc2F)cn(C)c(=O)c1C [Example 103, N-[4-(2,4-difluorophenoxy)-3-(1,4,5-trimethyl-6-oxopyridin-3-yl)phenyl]methanesulfonamide]					IC50 ([1]; Cell-MTS, class symbols A/B/C): 500 to 5000 nM; IC50 ([2]; HL-60, Cell-MTS, class symbols A/B/C): < 500 nM; IC50 ([3]; NCI-H460, Cell-MTS, class symbols A/B/C): > 5000 nM
COc1cc(-c2nc(CS(C)(=O)=O)ncc2Oc2ccc(F)cc2F)cn(C)c1=O [Example 146, 5-[5-(2,4-difluorophenoxy)-2-(methylsulfonylmethyl)pyrimidin-4-yl]-3-methoxy-1-methylpyridin-2-one]	< 500	500 to 5000	> 5000		
Cc1cc(-c2nc(CS(C)(=O)=O)ncc2Oc2ccc(F)cc2F)cn(C)c1=O [Example 147, 5-[5-(2,4-difluorophenoxy)-2-(methylsulfonylmethyl)pyrimidin-4-yl]-1,3-dimethylpyridin-2-one]	< 500	500 to 5000	> 5000		
Cn1cc(-c2nc(NS(C)(=O)=O)ncc2Oc2ccc(F)cc2F)c2ccccc2c1=O [Example 165, N-[5-(2,4-difluorophenoxy)-4-(2-methyl-1-oxoisoquinolin-4-yl)pyrimidin-2-yl]methanesulfonamide]	< 500	500 to 5000	> 5000		
COc1cc(-c2nc(NS(C)(=O)=O)ncc2Oc2ccc(F)cc2F)cn(C)c1=O [Example 167, N-[5-(2,4-difluorophenoxy)-4-(5-methoxy-1-methyl-6-oxopyridin-3-yl)pyrimidin-2-yl]methanesulfonamide]	< 500	500 to 5000	> 5000		
CCS(=O)(=O)Nc1ncc(Oc2ccc(F)cc2F)c(-c2cc(OC)c(=O)n(C)c2)n1 [Example 168, N-[5-(2,4-difluorophenoxy)-4-(5-methoxy-1-methyl-6-oxopyridin-3-yl)pyrimidin-2-yl]ethanesulfonamide]		< 500	> 5000	< 500	
Cn1cc(-c2cc(S(C)(=O)=O)ccc2OCC2CC2)c2cc(C(F)(F)F)ccc2c1=O [Example 197]		500 to 5000	> 5000		
Cn1cc(-c2nc(S(C)(=O)=O)ccc2OCC2CC2)c2cc(F)ccc2c1=O [Example 202, 4-[3-(cyclopropylmethoxy)-6-methylsulfonylpyridin-2-yl]-6-fluoro-2-methylisoquinolin-1-one]	< 500	< 500	> 5000		
Cn1cc(-c2cc(OS(N)(=O)=O)ccc2OCC2CC2)c2ccccc2c1=O [Example 214, [4-(cyclopropylmethoxy)-3-(2-methyl-1-oxoisoquinolin-4-yl)phenyl]sulfamate]		< 500	> 5000	< 500	
Cc1cc(-c2cc(OS(N)(=O)=O)ccc2OCC2CC2)cn(C)c1=O [Example 215, [4-(cyclopropylmethoxy)-3-(1,5-dimethyl-6-oxopyridin-3-yl)phenyl]sulfamate]		< 500	> 5000	< 500	
CCCOc1ccc(S(C)(=O)=O)cc1-c1cn(C)c(=O)c2cnc(-c3cnn(C)c3)nc12 [Example 228]		500 to 5000	> 5000	< 500	
Cc1cc(-c2cn(CS(C)(=O)=O)c(=O)cc2Oc2ccc(F)cc2F)cn(CC2CC2)c1=O [Example 250]		500 to 5000	> 5000	< 500	
C#Cc1cc(-c2cc(NS(C)(=O)=O)ccc2Oc2ccc(F)cc2F)cn(C)c1=O [Example 286, N-[4-(2,4-difluorophenoxy)-3-(5-ethynyl-1-methyl-6-oxopyridin-3-yl)phenyl]methanesulfonamide]	< 500	500 to 5000	> 5000		
CCS(=O)(=O)Nc1ccc(Oc2ccc(F)cc2F)c(-c2cc(O)c(=O)n(C)c2)c1 [Example 451, N-[4-(2,4-difluorophenoxy)-3-(5-hydroxy-1-methyl-6-oxopyridin-3-yl)phenyl]ethanesulfonamide]	< 500				IC50 [2, 6]: < 500 nM; IC50 [3, 7]: > 5000 nM
Cc1cc(-c2cc(S(N)(=O)=O)ccc2NCC2CC2)cn(C)c1=O [Example 452, 4-(cyclopropylmethylamino)-3-(1,5-dimethyl-6-oxopyridin-3-yl) benzenesulfonamide]	500 to 5000				IC50 [2, 6]: 500 to 5000 nM; IC50 [3, 7]: > 5000 nM
